Reference: article PMC12067350, “Discovery of Thieno[3,2‑b]pyridine-5-carboxamide and 2,3-Difluorobenzamide Negative Allosteric Modulators of Metabotropic Glutamate Receptor Subtype 5” (ACS Medicinal Chemistry Letters, 2025)
Read-outs that look alike come from different tables or passages of the source.

Assays:
[1] = Binding in plasma from human (equilibrium dialysis); format: in vitro ADME; conditions: fraction unbound
Description: Binding in plasma from rat and human.
Determination of compounds’ fraction unbound (f u) in plasma from rat and human was conducted in vitro via equilibrium dialysis using HTDialysis membrane plates. Dialysis membranes (four paired strips per HTD assay) were hydrated as described by the manufacturer and inserted into the HTD plate, which was assembled and prepared for sample addition by the dispensing of blank buffer (DPBS, 100 µL/well) into the ‘top half’ of each membrane-split well. Each compound was diluted into plasma from each species (5 µM final concentration), which was aliquoted in triplicate to the ‘bottom half’ of the prepared HTD plate wells. The HTD plate was sealed and incubated for 6 hours at 37 °C. Following incubation, each well (both top and bottom halves) were transferred (20 µL) to the corresponding wells of a 96-shallow-well (V-bottom) plate. The daughter plates were then matrix-matched (buffer side wells received equal volume of plasma, and plasma side wells received equal volume of buffer), and extraction solution (120 µL; acetonitrile containing 50 nM carbamazepine as IS) was added to all wells of both daughter plates to precipitate protein and extract test article. The plates were then sealed and centrifuged (3500 rcf) for 10 minutes at ambient temperature. Supernatant (60 µL) from each well of the daughter plates was then transferred to the corresponding wells of new daughter plates (96-shallow-well, V bottom) containing water (Milli-Q, 60 µL/well), and the plates were sealed in preparation for LC-MS/MS analysis (see below). fu was calculated as (analyte to IS MS peak area ratio from Trans-buffer side) / (analyte to IS MS peak area ratio from Cis-plasma side). Mean values for each species were calculated from 3 replicates. […]
Mean values for each species were calculated from 3 replicates.

[2] = Intrinsic clearance in rat liver microsomes; format: in vitro ADME; conditions: predicted hepatic clearance from in vitro rat microsomal data
Description: Intrinsic Clearance in Rat and Human Liver Microsomes
The in vitro intrinsic clearance (CL int) was investigated in commercially obtained hepatic microsomes from rat and human donors using the substrate depletion (i.e., loss-of-parent vs. time, or t 1/2 method) approach with analyte detection via liquid chromatography-tandem mass spectrometry (LC-MS/MS). For each species, mean %parent remaining values at each time point were calculated from replicates raw data (analyte:IS peak area ratios) and used to determine in vitro t 1/2 and CLint.
Experiments were carried out using a robot-assisted (TECAN model Evo 200). Compound was incubated (1 µM final concentration) in buffer (100 mM potassium phosphate pH 7.4 with 3 mM MgCl2) containing hepatic microsomes (0.5 mg/mL final concentration) from multiple species, discretely, at 37 °C under constant orbital shaking. After 5 minutes (pre-incubation), reactions were initiated by addition of nicotinamide adenine dinucleotide phosphate (NADPH, 1 mM final concentration). At selected time intervals (0, 3, 7, 15, 25, and 45 minutes) post-addition of NADPH, aliquots (50 µL) were taken and placed into a 96-shallow-well plate containing ice cold acetonitrile (150 µL) with carbamazepine (IS, 50 nM). The plates were then centrifuged (3000 rcf at 4 °C) for 10 minutes. The supernatants were transferred to a new 96-shallow-well daughter plate and diluted (1:1 v/v) with water (Milli-Q filtered). The plates were then sealed in preparation for LC-MS/MS analysis (see below).
Raw LC-MS/MS peak area data generated from the assay samples were used to construct natural log-transformed %parent remaining vs. time plots (using t = 0 minute post-NADPH addition sample data as starting point set to 100%). In vitro compound half-life (t 1/2) values were obtained using the following […]
k is the slope from linear regression analysis of the natural log-transformed data (using means from Where all replicates at each time point). Resulting t 1/2 values were then used to calculate hepatic CLint values according to the following equation and with the use of species-specific scale-up factors for liver weight (grams) per total body weight (kg):
CL = 0.693 x 1 mL incubation x 45 mg microsomes x a gram liver
int in vitro t1/2 0.5 mg microsomes 1 gram liver kg body wt aScale-up factors used are 45 (rat) and 20 (human).1
Predicted hepatic clearance (CLhep) was calculated using the following equation: […]
Qh represents hepatic blood flow (mL/min/kg): 21 for human, 70 for rat, and 90 for mouse.

[3] = target: T1, human mGlu5 (Homo sapiens, UniProt P41594); assay: Calcium mobilization assay in human mGlu5-HEK293A cells (NAM, EC80 glutamate); format: cell-based; conditions: for %Glumin: efficacy of the NAM to reduce an EC80 response of glutamate
T1 construct: expressed in transfected cells
T1 sequence (P41594 21-1212): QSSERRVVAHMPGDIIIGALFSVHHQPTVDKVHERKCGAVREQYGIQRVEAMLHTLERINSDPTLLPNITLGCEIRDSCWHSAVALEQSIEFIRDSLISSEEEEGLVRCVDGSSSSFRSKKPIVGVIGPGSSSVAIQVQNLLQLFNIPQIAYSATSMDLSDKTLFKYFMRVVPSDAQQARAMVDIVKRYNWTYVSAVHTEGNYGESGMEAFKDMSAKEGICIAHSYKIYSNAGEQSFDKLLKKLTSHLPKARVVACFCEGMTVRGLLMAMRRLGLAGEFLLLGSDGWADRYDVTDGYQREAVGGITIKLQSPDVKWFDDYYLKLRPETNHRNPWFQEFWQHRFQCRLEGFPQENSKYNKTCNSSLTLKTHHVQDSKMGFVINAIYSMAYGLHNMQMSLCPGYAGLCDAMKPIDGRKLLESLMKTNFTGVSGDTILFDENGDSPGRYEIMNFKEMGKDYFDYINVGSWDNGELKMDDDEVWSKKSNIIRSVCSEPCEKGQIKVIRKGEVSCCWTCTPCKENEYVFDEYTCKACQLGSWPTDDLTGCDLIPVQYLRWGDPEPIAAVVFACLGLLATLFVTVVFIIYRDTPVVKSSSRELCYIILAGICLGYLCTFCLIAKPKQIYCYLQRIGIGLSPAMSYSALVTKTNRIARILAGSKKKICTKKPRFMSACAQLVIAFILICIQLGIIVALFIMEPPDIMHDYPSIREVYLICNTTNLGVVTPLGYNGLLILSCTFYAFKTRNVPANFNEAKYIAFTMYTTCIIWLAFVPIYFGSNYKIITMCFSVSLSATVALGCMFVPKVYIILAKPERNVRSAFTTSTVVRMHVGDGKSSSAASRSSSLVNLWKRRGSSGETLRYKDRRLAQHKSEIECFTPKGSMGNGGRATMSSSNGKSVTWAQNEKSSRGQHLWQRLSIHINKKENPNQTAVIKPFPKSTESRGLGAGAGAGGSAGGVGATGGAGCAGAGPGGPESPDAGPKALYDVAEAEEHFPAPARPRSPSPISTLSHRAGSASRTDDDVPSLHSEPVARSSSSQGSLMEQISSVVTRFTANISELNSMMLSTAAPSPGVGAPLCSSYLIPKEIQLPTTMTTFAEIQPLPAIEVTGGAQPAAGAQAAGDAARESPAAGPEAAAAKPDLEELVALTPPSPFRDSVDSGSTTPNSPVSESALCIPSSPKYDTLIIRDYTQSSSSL

[4] = human mGlu5-HEK293A cells, EC80 fixed concentration of glutamate, n = 2 in triplicate
[5] = human mGlu5-HEK293A cells, EC80 fixed concentration of glutamate, n = 2 in triplicate, read-out: IC50

Structure (SMILES)	human f u,plasma [1]	rat CLhep [2] [mL/min/kg]	%Glumin ([3]; human mGlu5-HEK293A cells) [%]	pIC50 [3, 4]	IC50 [3, 5] [µM]	IC50 ([3]; in μM, read-out: hmGlu5 IC50) [µM]	IC50 (nM) [3, 4]
O=C(Nc1ccc(F)cn1)c1cc(O[C@@H]2CCOC2)c2sccc2n1 [19aB]	0.008	55.1	2	7.22	0.061		
O=C(Nc1cccc(F)n1)c1cc(O[C@@H]2CCOC2)c2sccc2n1 [19aC]			6	5.98	1.07	1.1	
Cc1cccc(NC(=O)c2cc(O[C@@H]3CCOC3)c3sccc3n2)n1 [19aD]	0.005	57.5	2	7.66	0.022		
Cc1cccc(NC(=O)c2cc(O[C@@H]3CCOC3)c3sccc3n2)c1 [19aE]			2	6.08	0.845		
Cc1nc(NC(=O)c2cc(O[C@@H]3CCOC3)c3sccc3n2)ccc1F [19aG]			66	< 5	> 10		
CCc1csc(NC(=O)c2cc(O[C@@H]3CCOC3)c3sccc3n2)n1 [19aH]			6	5.62	2.56		
O=C(Nc1nccs1)c1cc(O[C@@H]2CCOC2)c2sccc2n1 [19aK]			3	5.75	1.83		
O=C(Nc1nc(CF)cs1)c1cc(O[C@@H]2CCOC2)c2sccc2n1 [19aL]	0.016	41.8	2	7.27	0.055		
O=C(Nc1nc(C(F)F)cs1)c1cc(O[C@@H]2CCOC2)c2sccc2n1 [19aM]			18	6.50	0.32		
N#Cc1csc(NC(=O)c2cc(O[C@@H]3CCOC3)c3sccc3n2)n1 [19aN]			3	6.27	0.559		
Cc1coc(NC(=O)c2cc(O[C@@H]3CCOC3)c3sccc3n2)n1 [19aP]			50	< 5	> 10		
Cc1nsc(NC(=O)c2cc(O[C@@H]3CCOC3)c3sccc3n2)n1 [19aQ]			73	< 5	> 10		
Cc1csc(NC(=O)c2cc(O[C@@H]3CCOC3)c3sc(C)cc3n2)n1 [19cA]			2	6.45	0.357		
Cc1cc2nc(C(=O)Nc3ccc(F)cn3)cc(O[C@@H]3CCOC3)c2s1 [19cB]							inactive
Cc1csc(NC(=O)c2cc(O[C@@H]3CCOC3)c3ccn(C)c3n2)n1 [19dA]	0.006	52.3	2	7.04	0.093		
Cn1ccc2c(O[C@@H]3CCOC3)cc(C(=O)Nc3ccc(F)cn3)nc21 [19dB]			12	5.98	1.06		
Cn1ccc2nc(C(=O)Nc3ccc(F)cn3)cc(O[C@@H]3CCOC3)c21 [19eB]			46	< 5	> 10		
Cc1csc(NC(=O)c2cc(O[C@@H]3CCOC3)c3ccccc3n2)n1 [19fA]			6	6.74	0.192		
O=C(Nc1ccc(F)cn1)c1cc(O[C@@H]2CCOC2)c2ccccc2n1 [19fB]			15	5.59	2.65		
